These results are taken from publication PMC3509539, “seco-Briarellinone and Briarellin S, Two New Eunicellin-Based Diterpenoids from the Panamanian Octocoral Briareum asbestinum” (Marine Drugs, 2012).

Each structure is given as a SMILES string. Where “and” joins values, the source holds several entries; their conditions need not be identical. Identical values can stand only once.

For series [1], the system named is NO production by thioglycolate elicited peritoneal macrophages from C57Bl/6 mice stimulated with LPS. Briefly: Inhibition of NO production induced by LPS in macrophages (Griess). The format is cell-based, mouse (C57Bl/6). The settings on record: LPS 1 μg/mL; for IC50: Mus musculus, Peritoneal macrophage, primary murine macrophages, compound added 1 h before the stimulus, NO after 24 h. The source says:
The anti-inflammatory properties of diterpenes from natural sources have been described previously. However, anti-inflammatory activity of the briarellins family has not been evaluated before. The inhibition of NO production is frequently used as an indicator of anti-inflammatory activity. NO is produced by a family of enzymes called NO synthases (NOS) and it mediates many physiological processes. Inflammatory conditions lead to production of high levels of NO regulated by the inducible NOS (iNOS) enzyme. NO is produced by many cell types in vitro in response to several stimuli such as microbial products (e.g., bacterial lipopolisacharide (LPS)), cytokines, viral proteins, among others. We evaluated the production of NO by primary murine macrophages stimulated with LPS (1 μg/mL) in the presence or absence of different concentrations of compounds 1–3. […] The levels of NO found at higher concentrations (20 μg/mL) of compound 1 might be attributed to the non pyrogen-free conditions of the isolation and purification process of compounds. Possible contaminations with potential microbial products in the compounds preparations disguise the inhibitory effect expected at these concentrations. […] Further studies are necessary to find out if compound 3 is able to inhibit other signaling pathways leading to the production of inflammatory mediators different than NO.
Figure 4 Inhibition of nitric oxide (NO) production induced by lipopolisacharides (LPS) in macrophages. […] (B) Cell viabilities were assessed using 3-(4,5-dimethylthiazol-2-yl)-2,5-diphenyltetrazolium bromide (MTT) assay after collection of the supernatant. […]
To determine the anti-inflammatory capacity of compounds 1–3, thioglycolate elicited macrophages from C57Bl/6 mice were used. […] The concentration of NO was measured using the Griess Reagent System from Promega. […]
Data are presented as mean ± S.E.M. Results were analyzed using a statistical software package (GraphPad Prism 5). […]

For series [2], the system named is peritoneal macrophages from C57Bl/6 mice. The series is described as follows: Cytotoxicity testing, MTT assay. It counts as cell-based, mouse (C57Bl/6). The settings on record: inhibitory concentrations 5–20 μg/mL, macrophages after collection of the supernatant. How it is done: Figure 4 Inhibition of nitric oxide (NO) production induced by lipopolisacharides (LPS) in macrophages. (A) Peritoneal macrophages from C57Bl/6 mice were treated with different concentrations of compounds 1–3 (1, 2, 5, 10, or 20 μg/mL) 1 h before the stimulus with LPS (1 μg/mL). After 24 h of stimulus with LPS, supernatants were collected for NO determination. (B) Cell viabilities were assessed using 3-(4,5-dimethylthiazol-2-yl)-2,5-diphenyltetrazolium bromide (MTT) assay after collection of the supernatant. Results represent mean ± S.E.M. and are representative of two different experiments. * P < 0.005 compared with LPS stimulus alone. C, control; Comp, compound. To evaluate the cytotoxicity of compounds 1–3, we used the MTT (Methylthiazolyldiphenyl-tetrazolium bromide) assay. Cell supernatants were removed for NO determination and were added to each well, 100 μL of MTT at a concentration of 0.5 mg/mL dissolved in RPMI. The assay plate was incubated overnight at 37 °C in 5% of CO2 atmosphere. In this assay the MTT is reduced to formazan by the activity of NAD-dependent dehydrogenase of living cell mitochondria to form a purple product. […] The color was analyzed at 570 nm using a micro-ELISA plate reader. The percent of viable cells was calculated using the formula: % viability = (ODsample × 100%)/(ODcontrol). […]
A general note: Formazan colour is commonly taken as a measure of viable cells.

Consider `CC(=O)CC1OC2[C@@H]3C(C[C@H](C)[C@H](OC(C)=O)[C@H]13)[C@H](C)CO[C@]2(C)/C=C/C=O` (some centres unmarked) [compound 3, seco-asbestinin], for which the “Effect on the production of NO induced by LPS in macrophages” value in series [1] (1, 2, 5, 10 or 20 μg/mL, 24 h) is “did not show any significant effect”.
In the case of `C=C1CC2OC3C4C(CC(=O)C(C)(O)C24)C(C)COC3(C)C(OC(=O)CCCCCCC)CC1O` (centres unmarked) [compound 2, Briarellin S], in series [1], the IC50 (in general, the point on the concentration scale where inhibition reaches its midpoint) was 10 µg/mL and 20.4 µM. In addition, in series [2], the “Cell viability (MTT)” value is recorded as “do not interfere with the cell viability”.
In the case of `CC(=O)CC1OC2C3C(CC(=O)C(C)(O)C13)C(C)COC2(C)C=CC=O` (centres unmarked) [compound 1, seco-Briarellinone], the IC50 in series [1] is 1.71 µg/mL and 4.7 µM. Further, in series [2], the “Cell viability (MTT)” value is “do not interfere with the cell viability”.
